Assay results reported in ChEMBL document CHEMBL1287771, “Novel hybrids of 15-membered 8a- and 9a-azahomoerythromycin A ketolides and quinolones as potent antibacterials” (2010).
In brackets after ≈: the same amount, converted by molar mass.

How the values were obtained:
Type in all cases: functional
Streptococcus pyogenes [1] = experiment: Antibacterial activity against inducible macrolide-lincosamide-streptogramin B-resistant Streptococcus pyogenes B0543 by agar microdilution method
Streptococcus pyogenes [2] = experiment: Antibacterial activity against erythromycin A-susceptible Streptococcus pyogenes B0542 by agar microdilution method
Haemophilus influenzae = experiment: Antibacterial activity against Haemophilus influenzae B0529 by agar microdilution method
Staphylococcus aureus [3] = experiment: Antibacterial activity against constitutive macrolide-lincosamide-streptogramin B-resistant Staphylococcus aureus B0330 by agar microdilution method
Streptococcus pneumoniae [4] = experiment: Antibacterial activity against erythromycin A-susceptible Streptococcus pneumoniae B0541 by agar microdilution method
Moraxella catarrhalis = experiment: Antibacterial activity against Moraxella catarrhalis B0324 by agar microdilution method
Streptococcus pneumoniae [5] = experiment: Antibacterial activity against constitutive macrolide-lincosamide-streptogramin B-resistant Streptococcus pneumoniae B0627 by agar microdilution method
Staphylococcus aureus [6] = experiment: Antibacterial activity against inducible macrolide-lincosamide-streptogramin B-resistant Staphylococcus aureus B0538 by agar microdilution method
Staphylococcus aureus [7] = experiment: Antibacterial activity against efflux-resistant Staphylococcus aureus B0331 by agar microdilution method
Streptococcus pyogenes [8] = experiment: Antibacterial activity against efflux-resistant Streptococcus pyogenes B0545 by agar microdilution method
Streptococcus pyogenes [9] = experiment: Antibacterial activity against constitutive macrolide-lincosamide-streptogramin B-resistant Streptococcus pyogenes B0544 by agar microdilution method
Staphylococcus aureus [10] = experiment: Antibacterial activity against erythromycin A-susceptible Staphylococcus aureus B0329 by agar microdilution method
Streptococcus pneumoniae [11] = experiment: Antibacterial activity against efflux-resistant Streptococcus pneumoniae B0326 by agar microdilution method

| Structure (SMILES) | MIC (Streptococcus pyogenes [1]) [µg/mL] | MIC (Streptococcus pyogenes [2]) [µg/mL] | MIC (Haemophilus influenzae) [µg/mL] | MIC (Staphylococcus aureus [3]) [µg/mL] | MIC (Streptococcus pneumoniae [4]) [µg/mL] | MIC (Moraxella catarrhalis) [µg/mL] | MIC (Streptococcus pneumoniae [5]) [µg/mL] | MIC (Staphylococcus aureus [6]) [µg/mL] | MIC (Staphylococcus aureus [7]) [µg/mL] | MIC (Streptococcus pyogenes [8]) [µg/mL] | MIC (Streptococcus pyogenes [9]) [µg/mL] | MIC (Staphylococcus aureus [10]) [µg/mL] | MIC (Streptococcus pneumoniae [11]) [µg/mL] |
| --- | --- | --- | --- | --- | --- | --- | --- | --- | --- | --- | --- | --- | --- |
| CC[C@H]1OC(=O)[C@H](C)C(=O)[C@H](C)[C@@H](O[C@@H]2O[C@H](C)C[C@H](N(C)C)[C@H]2O)[C@](C)(OCCCC2CNc3ccccc3C2)C[C@@H](C)NC(=O)[C@H](C)[C@H](O)[C@@]1(C)O (stereo partly specified) | 16 (≈ 21 µM) | ≤ 0.125 | 16 (≈ 21 µM) | 64 (≈ 84 µM) | ≤ 0.125 | 1 (≈ 1.31 µM) | 64 (≈ 84 µM) | > 64 | 64 (≈ 84 µM) | 8 (≈ 10.5 µM) | > 64 | 2 (≈ 2.62 µM) | 8 (≈ 10.5 µM) |
| C=CCO[C@]1(C)C[C@@H](C)NC(=O)[C@H](C)[C@H](O)[C@@](C)(O)[C@@H](CC)OC(=O)[C@H](C)[C@@H](O[C@@H]2C[C@@](C)(OC)[C@@H](O)[C@H](C)O2)[C@H](C)[C@H]1O[C@@H]1O[C@H](C)C[C@H](N(C)C)[C@H]1O | 16 (≈ 20.3 µM) | ≤ 0.125 | 1 (≈ 1.27 µM) | > 64 | ≤ 0.125 | ≤ 0.125 | > 64 | > 64 | 64 (≈ 81.1 µM) | 16 (≈ 20.3 µM) | > 64 | 0.25 (≈ 0.317 µM) | 8 (≈ 10.1 µM) |
| CC[C@H]1OC(=O)[C@H](C)[C@@H](O[C@@H]2C[C@@](C)(OC)[C@@H](O)[C@H](C)O2)[C@H](C)[C@@H](O[C@@H]2O[C@H](C)C[C@H](N(C)C)[C@H]2O)[C@](C)(OC/C=C/NCCc2ccc([N+](=O)[O-])cc2)C[C@@H](C)NC(=O)[C@H](C)[C@H](O)[C@@]1(C)O | 2 (≈ 2.1 µM) | ≤ 0.06 | 4 (≈ 4.2 µM) | > 64 | 0.06 (≈ 0.0629 µM) | 0.25 (≈ 0.262 µM) | 32 (≈ 33.6 µM) | 64 (≈ 67.1 µM) | 32 (≈ 33.6 µM) | 16 (≈ 16.8 µM) | > 64 | 0.5 (≈ 0.525 µM) | 4 (≈ 4.2 µM) |
| CC[C@H]1OC(=O)[C@H](C)[C@@H](O[C@@H]2C[C@@](C)(OC)[C@@H](O)[C@H](C)O2)[C@H](C)[C@@H](O[C@@H]2O[C@H](C)C[C@H](N(C)C)[C@H]2O)[C@](C)(OC/C=C/N[C@H](C)Cc2ccc([N+](=O)[O-])cc2)C[C@@H](C)NC(=O)[C@H](C)[C@H](O)[C@@]1(C)O | 8 (≈ 8.27 µM) | ≤ 0.125 | 16 (≈ 16.5 µM) | > 64 | ≤ 0.125 | 2 (≈ 2.07 µM) | > 64 | > 64 | 64 (≈ 66.2 µM) | 32 (≈ 33.1 µM) | > 64 | 0.5 (≈ 0.517 µM) | 64 (≈ 66.2 µM) |
| C=CCO[C@]1(C)C[C@@H](C)C(=O)N[C@H](C)[C@H](O)[C@@](C)(O)[C@@H](CC)OC(=O)[C@H](C)[C@@H](O[C@@H]2C[C@@](C)(OC)[C@@H](O)[C@H](C)O2)[C@H](C)[C@H]1O[C@@H]1O[C@H](C)C[C@H](N(C)C)[C@H]1O | 4 (≈ 5.07 µM) | ≤ 0.125 | 64 (≈ 81.1 µM) | > 64 | > 64 | 4 (≈ 5.07 µM) | > 64 | > 64 | > 64 | > 64 | > 64 | > 64 | > 64 |
| CC[C@H]1OC(=O)[C@H](C)[C@@H](O[C@@H]2C[C@@](C)(OC)[C@@H](O)[C@H](C)O2)[C@H](C)[C@@H](O[C@@H]2O[C@H](C)C[C@H](N(C)C)[C@H]2O)[C@](C)(OC/C=C/NCCc2ccc([N+](=O)[O-])cc2)C[C@@H](C)C(=O)N[C@H](C)[C@H](O)[C@@]1(C)O | 4 (≈ 4.2 µM) | 0.125 (≈ 0.131 µM) | 64 (≈ 67.1 µM) | > 64 | > 64 | 8 (≈ 8.39 µM) | > 64 | > 64 | 32 (≈ 33.6 µM) | 16 (≈ 16.8 µM) | > 64 | 32 (≈ 33.6 µM) | 16 (≈ 16.8 µM) |
| CC[C@H]1OC(=O)[C@H](C)C(=O)[C@H](C)[C@@H](O[C@@H]2O[C@H](C)C[C@H](N(C)C)[C@H]2O)[C@](C)(OCC(O)CN2CCN(c3cc4c(=O)c(C(=O)O)cn(C5CC5)c4cc3Cl)CC2)C[C@@H](C)NC(=O)[C@H](C)[C@H](O)[C@@]1(C)O (stereo partly specified) | 1 (≈ 1.01 µM) | ≤ 0.125 | 1 (≈ 1.01 µM) | > 64 | ≤ 0.125 | ≤ 0.125 | 1 (≈ 1.01 µM) | 1 (≈ 1.01 µM) | 0.25 (≈ 0.252 µM) | 0.5 (≈ 0.504 µM) | 4 (≈ 4.03 µM) | 1 (≈ 1.01 µM) | 0.25 (≈ 0.252 µM) |
